According to ChEMBL document CHEMBL3885861, “Open TG-GATES”:

Species on record: Rattus norvegicus
Assay: Open TG-GATES - Regimen: Daily Repeat
Format: toxicity, organism-based, Sprague-Dawley
Parameters: regimen Daily Repeat, gender Male, age 6 weeks
Settings: in vivo, po, route gavage; for APTT / Bas / Eos / Fbg / Hb / Ht / Lym / MCHC / MCV / Mono / Neu / PT / Plat / RBC / Ret / WBC: tissue Blood; for KIDNEY_L / KIDNEY_R / KIDNEY_TOTAL: tissue Kidney; for LIVER: tissue Liver; for ALP / ALT / AST / CRE / DBIL / GLC / IP / K / LDH / Na / PL / RALB / TBIL / TC / TG / TP / gamma-GTP: tissue Plasma
[1] = 300 mg/kg, 72 h, dose level Middle, time 3 day
[2] = 300 mg/kg, […], dose level Middle, time 7 day
[3] = 300 mg/kg, […], dose level Middle, time 14 day
[4] = 300 mg/kg, […], dose level Middle, time 28 day
[5] = 1000 mg/kg, 72 h, dose level High, time 3 day
[6] = 1000 mg/kg, […], dose level High, time 7 day
[7] = 1000 mg/kg, […], dose level High, time 14 day
[8] = 1000 mg/kg, […], dose level High, time 28 day

C#C[C@]1(O)CC[C@H]2[C@@H]3CCC4=Cc5oncc5C[C@]4(C)[C@H]3CC[C@@]21C [DANAZOL]
TERMINAL_BW [1]: 238.4 g | APTT [1]: 22.7 s | Bas [1]: 0% | Eos [1]: 1% | Fbg [1]: 355.8 mg/dL | Hb [1]: 13.5 g/dL | Ht [1]: 40.3% | Lym [1]: 80% | MCHC [1]: 33.4% | MCV [1]: 62.4 fL | Mono [1]: 2.4% | Neu [1]: 15.8% | PT [1]: 16.5 s | Plat [1]: 115.8 x10_4/uL | RBC [1]: 645.6 x10_4/ul | Ret [1]: 6.6% | WBC [1]: 87.1 x10_2/uL | KIDNEY_L [1]: 1.1 g | KIDNEY_R [1]: 1.1 g | KIDNEY_TOTAL [1]: 2.2 g | LIVER [1]: 12.4 g | ALP [1]: 1638.6 IU/L | ALT [1]: 45.2 IU/L | AST [1]: 65.8 IU/L | CRE [1]: 0.2 mg/dL | DBIL [1]: 0 mg/dL | GLC [1]: 180.2 mg/dL | IP [1]: 7.9 mg/dL | K [1]: 4.5 meq/L | LDH [1]: 169.6 IU/L | Na [1]: 141.6 meq/L | PL [1]: 129.6 mg/dL | RALB [1]: 3.1 g/dL | TBIL [1]: 0.004 mg/dL | TC [1]: 50.2 mg/dL | TG [1]: 172.2 mg/dL | TP [1]: 5.7 g/dL | gamma-GTP [1]: 2 IU/L | TERMINAL_BW [2]: 263.9 g | TERMINAL_BW [3]: 303.4 g | TERMINAL_BW [4]: 343.4 g | APTT [2]: 25.7 s | Bas [2]: 0% | Eos [2]: 0.8% | Fbg [2]: 360 mg/dL | Hb [2]: 13.9 g/dL | Ht [2]: 41.1% | Lym [2]: 81.8% | MCHC [2]: 33.8% | MCV [2]: 61.8 fL | Mono [2]: 2% | Neu [2]: 14.8% | PT [2]: 16.2 s | Plat [2]: 127.5 x10_4/uL | RBC [2]: 666.4 x10_4/ul | Ret [2]: 5.3% | WBC [2]: 104.2 x10_2/uL | APTT [3]: 26.4 s | Bas [3]: 0% | Eos [3]: 0.8% | Fbg [3]: 334.2 mg/dL | Hb [3]: 14.6 g/dL | Ht [3]: 41.2% | Lym [3]: 85.2% | MCHC [3]: 35.4% | MCV [3]: 58.8 fL | Mono [3]: 2.4% | Neu [3]: 10.8% | PT [3]: 17.3 s | Plat [3]: 124.6 x10_4/uL | RBC [3]: 701.4 x10_4/ul | Ret [3]: 2.8% | WBC [3]: 113.8 x10_2/uL | APTT [4]: 26.1 s | Bas [4]: 0% | Eos [4]: 0.6% | Fbg [4]: 310.8 mg/dL | Hb [4]: 14.5 g/dL | Ht [4]: 42.2% | Lym [4]: 84.2% | MCHC [4]: 34.5% | MCV [4]: 54.1 fL | Mono [4]: 1.8% | Neu [4]: 12.4% | PT [4]: 17.9 s | Plat [4]: 108.2 x10_4/uL | RBC [4]: 779.4 x10_4/ul | Ret [4]: 2% | WBC [4]: 79.9 x10_2/uL | KIDNEY_L [2]: 1.2 g | KIDNEY_R [2]: 1.2 g | KIDNEY_TOTAL [2]: 2.4 g | KIDNEY_L [3]: 1.3 g | KIDNEY_R [3]: 1.3 g | KIDNEY_TOTAL [3]: 2.6 g | KIDNEY_L [4]: 1.4 g | KIDNEY_R [4]: 1.3 g | KIDNEY_TOTAL [4]: 2.7 g | LIVER [2]: 13.6 g | LIVER [3]: 14.9 g | LIVER [4]: 14.9 g | ALP [2]: 1469 IU/L | ALT [2]: 42.6 IU/L | AST [2]: 64 IU/L | CRE [2]: 0.2 mg/dL | DBIL [2]: 0 mg/dL | GLC [2]: 181.6 mg/dL | IP [2]: 6.5 mg/dL | K [2]: 4.3 meq/L | LDH [2]: 134.6 IU/L | Na [2]: 142.2 meq/L | PL [2]: 132.2 mg/dL | RALB [2]: 3.1 g/dL | TBIL [2]: 0.002 mg/dL | TC [2]: 49.4 mg/dL | TG [2]: 210.2 mg/dL | TP [2]: 5.8 g/dL | gamma-GTP [2]: 1.8 IU/L | ALP [3]: 1443.4 IU/L | ALT [3]: 35.6 IU/L | AST [3]: 58 IU/L | CRE [3]: 0.2 mg/dL | DBIL [3]: 0 mg/dL | GLC [3]: 170 mg/dL | IP [3]: 6.8 mg/dL | K [3]: 4.3 meq/L | LDH [3]: 134.8 IU/L | Na [3]: 141.8 meq/L | PL [3]: 115 mg/dL | RALB [3]: 3.1 g/dL | TBIL [3]: 0 mg/dL | TC [3]: 35.6 mg/dL | TG [3]: 240.6 mg/dL | TP [3]: 6 g/dL | gamma-GTP [3]: 2.4 IU/L | ALP [4]: 1201.6 IU/L | ALT [4]: 35.6 IU/L | AST [4]: 57.6 IU/L | CRE [4]: 0.2 mg/dL | DBIL [4]: 0 mg/dL | GLC [4]: 178 mg/dL | IP [4]: 5.8 mg/dL | K [4]: 4 meq/L | LDH [4]: 121.6 IU/L | Na [4]: 142.2 meq/L | PL [4]: 130.4 mg/dL | RALB [4]: 3.1 g/dL | TBIL [4]: 0.002 mg/dL | TC [4]: 41.4 mg/dL | TG [4]: 280.2 mg/dL | TP [4]: 6.2 g/dL | gamma-GTP [4]: 2.8 IU/L | TERMINAL_BW [5]: 232.8 g | APTT [5]: 23.9 s | Bas [5]: 0% | Eos [5]: 1% | Fbg [5]: 355.8 mg/dL | Hb [5]: 13.1 g/dL | Ht [5]: 39.4% | Lym [5]: 83% | MCHC [5]: 33.3% | MCV [5]: 63 fL | Mono [5]: 3% | Neu [5]: 12.2% | PT [5]: 16.6 s | Plat [5]: 122.2 x10_4/uL | RBC [5]: 626 x10_4/ul | Ret [5]: 5.3% | WBC [5]: 100.4 x10_2/uL | KIDNEY_L [5]: 1.1 g | KIDNEY_R [5]: 1.1 g | KIDNEY_TOTAL [5]: 2.2 g | LIVER [5]: 13.1 g | ALP [5]: 1658.2 IU/L | ALT [5]: 39.2 IU/L | AST [5]: 60.6 IU/L | CRE [5]: 0.2 mg/dL | DBIL [5]: 0 mg/dL | GLC [5]: 173.4 mg/dL | IP [5]: 7.6 mg/dL | K [5]: 4.5 meq/L | LDH [5]: 153.4 IU/L | Na [5]: 141 meq/L | PL [5]: 116.2 mg/dL | RALB [5]: 3.1 g/dL | TBIL [5]: 0 mg/dL | TC [5]: 47.2 mg/dL | TG [5]: 132.6 mg/dL | TP [5]: 5.8 g/dL | gamma-GTP [5]: 2 IU/L | TERMINAL_BW [6]: 261.4 g | TERMINAL_BW [7]: 289.1 g | TERMINAL_BW [8]: 372.5 g | APTT [6]: 25.7 s | Bas [6]: 0% | Eos [6]: 0.8% | Fbg [6]: 351.6 mg/dL | Hb [6]: 14 g/dL | Ht [6]: 41.5% | Lym [6]: 86.4% | MCHC [6]: 33.8% | MCV [6]: 60 fL | Mono [6]: 1.6% | Neu [6]: 10.4% | PT [6]: 16.7 s | Plat [6]: 143.9 x10_4/uL | RBC [6]: 693.2 x10_4/ul | Ret [6]: 4.9% | WBC [6]: 103.6 x10_2/uL | APTT [7]: 28.9 s | Bas [7]: 0% | Eos [7]: 0.8% | Fbg [7]: 345.6 mg/dL | Hb [7]: 14.8 g/dL | Ht [7]: 42.1% | Lym [7]: 86.8% | MCHC [7]: 35.2% | MCV [7]: 57.3 fL | Mono [7]: 2.2% | Neu [7]: 9.6% | PT [7]: 17.1 s | Plat [7]: 119 x10_4/uL | RBC [7]: 734.6 x10_4/ul | Ret [7]: 2.4% | WBC [7]: 81.2 x10_2/uL | APTT [8]: 27.7 s | Bas [8]: 0% | Eos [8]: 1.2% | Fbg [8]: 320.6 mg/dL | Hb [8]: 14.3 g/dL | Ht [8]: 41.9% | Lym [8]: 79.4% | MCHC [8]: 34.1% | MCV [8]: 56.1 fL | Mono [8]: 3% | Neu [8]: 15.8% | PT [8]: 18.2 s | Plat [8]: 112.3 x10_4/uL | RBC [8]: 749 x10_4/ul | Ret [8]: 2.2% | WBC [8]: 69.9 x10_2/uL | KIDNEY_L [6]: 1.1 g | KIDNEY_R [6]: 1.2 g | KIDNEY_TOTAL [6]: 2.3 g | KIDNEY_L [7]: 1.3 g | KIDNEY_R [7]: 1.4 g | KIDNEY_TOTAL [7]: 2.7 g | KIDNEY_L [8]: 1.5 g | KIDNEY_R [8]: 1.5 g | KIDNEY_TOTAL [8]: 3 g | LIVER [6]: 13.2 g | LIVER [7]: 15 g | LIVER [8]: 18 g | ALP [6]: 1593 IU/L | ALT [6]: 36.4 IU/L | AST [6]: 61.2 IU/L | CRE [6]: 0.1 mg/dL | DBIL [6]: 0 mg/dL | GLC [6]: 184 mg/dL | IP [6]: 7 mg/dL | K [6]: 4.3 meq/L | LDH [6]: 136.6 IU/L | Na [6]: 142.4 meq/L | PL [6]: 121 mg/dL | RALB [6]: 3.2 g/dL | TBIL [6]: 0 mg/dL | TC [6]: 44.2 mg/dL | TG [6]: 200.6 mg/dL | TP [6]: 5.8 g/dL | gamma-GTP [6]: 2.4 IU/L | ALP [7]: 1541.2 IU/L | ALT [7]: 37.6 IU/L | AST [7]: 58.6 IU/L | CRE [7]: 0.2 mg/dL | DBIL [7]: 0 mg/dL | GLC [7]: 174.8 mg/dL | IP [7]: 7.2 mg/dL | K [7]: 4.3 meq/L | LDH [7]: 133.8 IU/L | Na [7]: 142.2 meq/L | PL [7]: 124.2 mg/dL | RALB [7]: 3.1 g/dL | TBIL [7]: 0 mg/dL | TC [7]: 38.6 mg/dL | TG [7]: 255.8 mg/dL | TP [7]: 6.2 g/dL | gamma-GTP [7]: 2.8 IU/L | ALP [8]: 1028.8 IU/L | ALT [8]: 37.6 IU/L | AST [8]: 55.8 IU/L | CRE [8]: 0.2 mg/dL | DBIL [8]: 0 mg/dL | GLC [8]: 177.8 mg/dL | IP [8]: 6.6 mg/dL | K [8]: 4.2 meq/L | LDH [8]: 122.6 IU/L | Na [8]: 141.6 meq/L | PL [8]: 133.6 mg/dL | RALB [8]: 3.2 g/dL | TBIL [8]: 0 mg/dL | TC [8]: 41.4 mg/dL | TG [8]: 275.4 mg/dL | TP [8]: 6.4 g/dL | gamma-GTP [8]: 3.6 IU/L
